Laboratory results: PubChem BioAssay AID2060883 (Molecular Pharmacology Branch, DTP, NCI, 2025)

Test system: 843782-103-R-J1-PDC complex spheroid viability
Assay: Anticancer human tumor 843782-103-R-J1-PDC patient-derived lung adenocarcinoma cell line growth inhibition [RAS]
Details: for IC50: curve of first compound; for viability, T/C: stronger effect = lower value
Outline: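 Agents were tested in combination matrices in half-log decrements from a top concentration at or near clinical Cmax (10 microM if undetermined). Targets were multi-cell spheroids of tumour lines plus HUVEC and MSC stromal cells.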

[1] = second compound 0.000949 µM, first compound 0.00316 µM
[2] = second compound 0.000949 µM, first compound 0.01 µM
[3] = second compound 0.000949 µM, first compound 0.0316 µM
[4] = second compound 0.000949 µM, first compound 0.1 µM
[5] = second compound 0.000949 µM, first compound 0.316 µM
[6] = second compound 0.000949 µM, first compound 1 µM
[7] = second compound 0.003 µM, first compound 0.00316 µM
[8] = second compound 0.003 µM, first compound 0.01 µM
[9] = second compound 0.003 µM, first compound 0.0316 µM
[10] = second compound 0.003 µM, first compound 0.1 µM
[11] = second compound 0.003 µM, first compound 0.316 µM
[12] = second compound 0.003 µM, first compound 1 µM
[13] = second compound 0.00949 µM, first compound 0.00316 µM
[14] = second compound 0.00949 µM, first compound 0.01 µM
[15] = second compound 0.00949 µM, first compound 0.0316 µM
[16] = second compound 0.00949 µM, first compound 0.1 µM
[17] = second compound 0.00949 µM, first compound 0.316 µM
[18] = second compound 0.00949 µM, first compound 1 µM
[19] = second compound 0.03 µM, first compound 0.00316 µM
[20] = second compound 0.03 µM, first compound 0.01 µM
[21] = second compound 0.03 µM, first compound 0.0316 µM
[22] = second compound 0.03 µM, first compound 0.1 µM
[23] = second compound 0.03 µM, first compound 0.316 µM
[24] = second compound 0.03 µM, first compound 1 µM
[25] = second compound 0.0949 µM, first compound 0.00316 µM
[26] = second compound 0.0949 µM, first compound 0.01 µM
[27] = second compound 0.0949 µM, first compound 0.0316 µM
[28] = second compound 0.0949 µM, first compound 0.1 µM
[29] = second compound 0.0949 µM, first compound 0.316 µM
[30] = second compound 0.0949 µM, first compound 1 µM
[31] = second compound 0.3 µM, first compound 0.00316 µM
[32] = second compound 0.3 µM, first compound 0.01 µM
[33] = second compound 0.3 µM, first compound 0.0316 µM
[34] = second compound 0.3 µM, first compound 0.1 µM
[35] = second compound 0.3 µM, first compound 0.316 µM
[36] = second compound 0.3 µM, first compound 1 µM
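Also: viability read after seven days of compound exposure.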

`CC1(C)CCC(Nc2ncc(C(F)(F)F)c(-c3c[nH]c4c(P(C)(C)=O)c(C#N)ccc34)n2)CN1` (stereo unspecified) + C=CC(=O)N1CCN(c2nc(OCC3CCCN3C)nc3c(F)c(-c4nc(N)cc(C)c4C(F)(F)F)c(Cl)cc23)C(C)C1 gave an IC50 (second compound 0.00316 µM) of 6.62 nM, an IC50 (second compound 0.01 µM) of 7.23 nM and an IC50 (second compound 0.0316 µM) of 7.99 nM. It also gave an IC50 (second compound 0.1 µM) of 5.81 nM, an IC50 (second compound 0.316 µM) of 6.75 nM and an IC50 (second compound 1 µM) of 6.96 nM. It also gave a viability, T/C (second compound 0.00316 µM, first compound 0.000949 µM) of 85.3%, a viability, T/C (second compound 0.00316 µM, first compound 0.003 µM) of 72.8% and a viability, T/C (second compound 0.00316 µM, first compound 0.00949 µM) of 38.8%. It also gave a viability, T/C (second compound 0.00316 µM, first compound 0.03 µM) of 25.7%, a viability, T/C (second compound 0.00316 µM, first compound 0.0949 µM) of 13.6% and a viability, T/C (second compound 0.00316 µM, first compound 0.3 µM) of 21.5%. The viability, T/C (second compound 0.01 µM, first compound 0.000949 µM) was 89.1%, the viability, T/C (second compound 0.01 µM, first compound 0.003 µM) was 75.6% and the viability, T/C (second compound 0.01 µM, first compound 0.00949 µM) was 42%. It also gave a viability, T/C (second compound 0.01 µM, first compound 0.03 µM) of 23%, a viability, T/C (second compound 0.01 µM, first compound 0.0949 µM) of 18.5% and a viability, T/C (second compound 0.01 µM, first compound 0.3 µM) of 18.8%. For the same molecule, the viability, T/C (second compound 0.0316 µM, first compound 0.000949 µM) was 82.7%, the viability, T/C (second compound 0.0316 µM, first compound 0.003 µM) was 81.2% and the viability, T/C (second compound 0.0316 µM, first compound 0.00949 µM) was 44.5%. The viability, T/C (second compound 0.0316 µM, first compound 0.03 µM) was 22.1%, the viability, T/C (second compound 0.0316 µM, first compound 0.0949 µM) was 20.6% and the viability, T/C (second compound 0.0316 µM, first compound 0.3 µM) was 18%. The viability, T/C (second compound 0.1 µM, first compound 0.000949 µM) was 87.8%, the viability, T/C (second compound 0.1 µM, first compound 0.003 µM) was 70% and the viability, T/C (second compound 0.1 µM, first compound 0.00949 µM) was 35.7%. It also gave a viability, T/C (second compound 0.1 µM, first compound 0.03 µM) of 18.3%, a viability, T/C (second compound 0.1 µM, first compound 0.0949 µM) of 19.3% and a viability, T/C (second compound 0.1 µM, first compound 0.3 µM) of 18.9%. For the same molecule, the viability, T/C (second compound 0.316 µM, first compound 0.000949 µM) was 87.3%, the viability, T/C (second compound 0.316 µM, first compound 0.003 µM) was 72.7% and the viability, T/C (second compound 0.316 µM, first compound 0.00949 µM) was 40.9%. It also gave a viability, T/C (second compound 0.316 µM, first compound 0.03 µM) of 21.7%, a viability, T/C (second compound 0.316 µM, first compound 0.0949 µM) of 19.3% and a viability, T/C (second compound 0.316 µM, first compound 0.3 µM) of 19.6%. The viability, T/C (second compound 1 µM, first compound 0.000949 µM) was 95.3%, the viability, T/C (second compound 1 µM, first compound 0.003 µM) was 69.8% and the viability, T/C (second compound 1 µM, first compound 0.00949 µM) was 45%. The viability, T/C (second compound 1 µM, first compound 0.03 µM) was 23.5%, the viability, T/C (second compound 1 µM, first compound 0.0949 µM) was 19.5% and the viability, T/C (second compound 1 µM, first compound 0.3 µM) was 23.7%.
Work on `C=CC(=O)Nc1cc(Nc2nccc(-c3cn(C)c4ccccc34)n2)c(OC)cc1N(C)CCN(C)C` + CCn1c(-c2cc(N3CCN(C)CC3)cnc2C(C)OC)c2c3cc(ccc31)-c1csc(n1)CC(NC(=O)C1CC1C)C(=O)N1CCCC(N1)C(=O)OCC(C)(C)C2 yielded an IC50 (second compound 0.000949 µM) of 296 nM, an IC50 (second compound 0.003 µM) of 28.9 nM and an IC50 (second compound 0.00949 µM) of less than 3.16 nM. It also gave an IC50 (second compound 0.03 µM) of less than 3.16 nM, an IC50 (second compound 0.0949 µM) of less than 3.16 nM and an IC50 (second compound 0.3 µM) of less than 3.16 nM. The viability, T/C [1] was 81.5%, the viability, T/C [2] was 69% and the viability, T/C [3] was 71.1%. It also gave a viability, T/C [4] of 56.2%, a viability, T/C [5] of 49.4% and a viability, T/C [6] of 41.3%. It also gave a viability, T/C [7] of 60.1%, a viability, T/C [8] of 55.5% and a viability, T/C [9] of 50%. It also gave a viability, T/C [10] of 41%, a viability, T/C [11] of 33.9% and a viability, T/C [12] of 30.2%. It also gave a viability, T/C [13] of 34.9%, a viability, T/C [14] of 32.6% and a viability, T/C [15] of 32.1%. It also gave a viability, T/C [16] of 25.7%, a viability, T/C [17] of 26.9% and a viability, T/C [18] of 18.3%. The viability, T/C [19] was 18.6%, the viability, T/C [20] was 19.4% and the viability, T/C [21] was 17.6%. For the same molecule, the viability, T/C [22] was 16.9%, the viability, T/C [23] was 17.6% and the viability, T/C [24] was 14.2%. For the same molecule, the viability, T/C [25] was 17.8%, the viability, T/C [26] was 13.2% and the viability, T/C [27] was 13.7%. It also gave a viability, T/C [28] of 15.4%, a viability, T/C [29] of 14% and a viability, T/C [30] of 12.8%. The viability, T/C [31] was 13.8%, the viability, T/C [32] was 13.2% and the viability, T/C [33] was 10.6%. It also gave a viability, T/C [34] of 11.8%, a viability, T/C [35] of 13.6% and a viability, T/C [36] of 10.4%.
`O=C(c1ccc(F)c(F)c1Nc1ccc(I)cc1F)N1CC(O)([C@@H]2CCCCN2)C1` + CCn1c(-c2cc(N3CCN(C)CC3)cnc2C(C)OC)c2c3cc(ccc31)-c1csc(n1)CC(NC(=O)C1CC1C)C(=O)N1CCCC(N1)C(=O)OCC(C)(C)C2 showed an IC50 (second compound 0.000949 µM) of 18 nM, an IC50 (second compound 0.003 µM) of 4.01 nM and an IC50 (second compound 0.00949 µM) of less than 3.16 nM. It also gave an IC50 (second compound 0.03 µM) of less than 3.16 nM, an IC50 (second compound 0.0949 µM) of less than 3.16 nM and an IC50 (second compound 0.3 µM) of less than 3.16 nM. The viability, T/C [1] was 68.7%, the viability, T/C [2] was 63.4% and the viability, T/C [3] was 36.7%. It also gave a viability, T/C [4] of 26.3%, a viability, T/C [5] of 19% and a viability, T/C [6] of 11%. The viability, T/C [7] was 53%, the viability, T/C [8] was 37.5% and the viability, T/C [9] was 31.5%. It also gave a viability, T/C [10] of 17.7%, a viability, T/C [11] of 11.7% and a viability, T/C [12] of 10.3%. The viability, T/C [13] was 30%, the viability, T/C [14] was 19.3% and the viability, T/C [15] was 16.9%. For the same molecule, the viability, T/C [16] was 10.9%, the viability, T/C [17] was 9.55% and the viability, T/C [18] was 7.11%. For the same molecule, the viability, T/C [19] was 14.8%, the viability, T/C [20] was 15.3% and the viability, T/C [21] was 10.1%. The viability, T/C [22] was 8.81%, the viability, T/C [23] was 8.18% and the viability, T/C [24] was 9.08%. It also gave a viability, T/C [25] of 13%, a viability, T/C [26] of 10.8% and a viability, T/C [27] of 9.11%. For the same molecule, the viability, T/C [28] was 7.24%, the viability, T/C [29] was 7.61% and the viability, T/C [30] was 8.33%. It also gave a viability, T/C [31] of 10.4%, a viability, T/C [32] of 8.56% and a viability, T/C [33] of 7.38%. For the same molecule, the viability, T/C [34] was 6.95%, the viability, T/C [35] was 8.88% and the viability, T/C [36] was 5.35%.
